Laboratory results taken from patent publication US8153689B2, “Pleuromutilin derivatives for the treatment of diseases mediated by microbes” (Nabriva Therapeutics AG, priority 2007, dated 2012).

Test system: primary human hepatocytes
Assay: Metabolic stability in cryopreserved primary human hepatocytes
Assay type: in vitro ADME
Details: 4 h incubation with human hepatocytes, compound concentration 5 μg/mL, 37° C., LC/MS
Method: The metabolic stability for compounds of the present invention was determined by using cryopreserved primary human hepatocytes. 1×10^6 cells/mL were incubated in the absence and the presence of 5 and 25 μg/mL of the test compounds at 37° C., 5% CO2 for 4 hours. To evaluate the in vitro degradation under assay conditions, a sample of each test compound was incubated also in the absence of hepatocytes. The incubation was stopped by freezing the reaction mixture. After ultrafiltration and washing of the filter with acetonitrile, the sample solution was analyzed for parent compound disappearance or metabolite appearance using LC/MS (ion trap). The metabolic stability value corresponds to the detected parent compound in % after incubation.

Compound	metabolic stability value: detected parent compound in % after incubation
14-O-{[(1R, 3R)-3-Amino-cyclohexylsulfanyl]-acetyl}-mutilin hydrochloride and the (1S, 3S)diastereomer hydrochloride thereof	24%
C=CC1(C)CC(OC(=O)CSC2CC(N)CCC2O)C2(C)C(C)CCC3(CCC(=O)C32)C(C)C1O.Cl (mixture of isomers) [Example 2, 14-O-{[(1R, 2R, 5S)-5-Amino-2-hydroxy-cyclohexylsulfanyl]-acetyl}-mutilin hydrochloride+(1S, 2S, 5R)diastereomer hydrochloride]	66%
